The values that follow come from PubChem BioAssay AID844 (SRMLSC, 2007).

The experiment has as its system MRP1 cells, doxorubicin viability shift, 10 uM compound. In words: doxorubicin EC50 increase in MRP-1 cells, dose response, cell-based, doxorubicin EC50 shift (AID 844). Particulars: for EC50: measured here: doxorubicin EC50 with compound.

The source made the active and inactive calls. The rule behind the calls is not given here.

For orientation: EC50 means the concentration at which the effect is half-maximal.

As for `CCc1ccc(NC(=O)Cn2c(=O)oc3cc(S(=O)(=O)N4CCOCC4)ccc32)cc1`, the fold increase in Dox EC50 was 1 (inactive) and the EC50 was 5.4 µM.

In the case of `CC(NC(=O)CN1CCN(Cc2ccc(Cl)cc2)C1=O)c1ccc2c(c1)OCCO2` (stereo unspecified), the fold increase in Dox EC50 was 0.87 (inactive) and the EC50 stood at 4.67 µM.

Consider `CC(=O)/C(C#N)=C1\NC(=O)C(Cc2ccc(C)c(C)c2)S1` (stereo unspecified), for which the fold increase in Dox EC50 is 1.19 (inactive) and the EC50 was 6.44 µM.

Consider `O=C(COc1ccc(Cl)cc1)N1CCN(Cc2ccccc2)CC1`, for which the fold increase in Dox EC50 was 1.38 (inactive) and the concentration for a half-maximal effect (EC50) came out at 7.48 µM.

As to `CCOC(=O)c1cnn(-c2ccccn2)c1N`, the fold increase in Dox EC50 was 0.92 (inactive) and the EC50 turned out to be 4.94 µM.

For the compound `CNC(=O)CSc1nnc(COc2ccc(Cl)cc2)n1CCOC`, the fold increase in Dox EC50 was 1.29 (inactive) and the EC50 turned out to be 6.95 µM.

Take `CC(C)Oc1ccc(-c2nn(-c3ccccc3)cc2/C=c2\sc3ncnn3c2=O)cc1`: the fold increase in Dox EC50 was 0.82 (inactive) and the EC50 was 4.4 µM.

Regarding `Cc1cccc2cc(CN(Cc3cccs3)S(=O)(=O)c3ccc4c(c3)OCCO4)c(=O)[nH]c12`, the fold increase in Dox EC50 is 1.47 (inactive) and the EC50 stood at 7.94 µM.

`COc1ccccc1-c1nc(C#N)c(N2CCc3ccccc3C2)o1`: the fold increase in Dox EC50 was 0.37 (inactive) and the EC50 is 1.99 µM.

In the case of `COc1ccc(/C=N/Nc2nc(-c3ccc(Cl)cc3)cc(C(F)(F)F)n2)cc1OC`, the fold increase in Dox EC50 was 0.35 (inactive) and the EC50 is 1.9 µM.

With `CC1CC(C)CN(c2ncnc3c2cnn3-c2ccc(Cl)cc2)C1` (stereo unspecified), the fold increase in Dox EC50 is 0.35 (inactive) and the EC50 amounted to 1.89 µM.

As for `O=C(COc1ccc(Cl)cc1)NCc1nnc(SCC(=O)NCc2ccc3c(c2)OCO3)o1`, the fold increase in Dox EC50 was 1.06 (inactive) and the EC50 stood at 5.74 µM.

In the case of `COC(=O)c1ccc(OC)c(CSc2nnc(COc3ccc(Cl)cc3)o2)c1`, the fold increase in Dox EC50 was 1.44 (inactive) and the EC50 worked out at 7.77 µM.

For `CCn1c(C)cc(/C=C2\NC(=O)N(Cc3ccc(Cl)cc3)C2=O)c1C`, the fold increase in Dox EC50 was 1.14 (inactive) and the EC50 is 6.15 µM.

Consider `CCc1c(C)sc(NC(=O)c2cccs2)c1C(=O)OC(C)C`, for which the fold increase in Dox EC50 is 0.42 (inactive) and the EC50 stood at 2.26 µM.

`CCOc1ccc(C2CC(c3ccc(CC)cc3)Nc3nc(N)nn32)cc1` (stereo unspecified): the fold increase in Dox EC50 is 1.24 (inactive) and the EC50 was 6.69 µM.

Take `Cc1nnc(NC(=O)C(C)Oc2ccc3c(C)cc(=O)oc3c2)s1` (stereo unspecified): the fold increase in Dox EC50 is 1.29 (inactive) and the EC50 amounted to 6.99 µM.

Turning to `CCc1c(C)sc(NC(=O)c2cc(CC(C)C)on2)c1C#N`, the fold increase in Dox EC50 was 0.64 (inactive) and the concentration giving a half-maximal response (EC50) was 3.45 µM.

For `CCCCCn1c(CN2CCCCC2C)nc2c1c(=O)n(C)c(=O)n2C` (stereo unspecified), the fold increase in Dox EC50 is 0.16 (inactive) and the EC50 turned out to be 0.883 µM.

Consider `CCOc1ccc2c(c1)c(N=O)c(O)n2C`, for which the fold increase in Dox EC50 is 0.58 (inactive) and the EC50 came out at 3.14 µM.

Turning to `COc1ccc(C(=O)Nc2ccc(Cl)c(S(=O)(=O)Nc3ccccc3OC)c2)cc1`, the fold increase in Dox EC50 is 0.57 (inactive) and the EC50 came to 3.05 µM.

Take `COc1cccc(Nc2nc3ccccc3nc2-n2nc(C)cc2C)c1`: the fold increase in Dox EC50 was 0.35 (inactive) and the EC50 was found to be 1.89 µM.

For the compound `Cc1cccc(-c2cc3nc(C)cc(N4CC(C)CC(C)C4)n3n2)c1` (stereo unspecified), the fold increase in Dox EC50 is 0.49 (inactive) and the EC50 stood at 2.65 µM.

Regarding `CNc1oc(-c2ccc(C)cc2)nc1P(=O)(c1ccccc1)c1ccccc1`, the fold increase in Dox EC50 was 0.95 (inactive) and the EC50 worked out at 5.13 µM.

Take `C/C(=N/NC(=S)Nc1ccccc1)c1ccc2c(c1)OCO2`: the fold increase in Dox EC50 was 1.01 (inactive) and the EC50 stood at 5.46 µM.

On to `CC(NC(=O)C12CC3CC(CC(C3)C1)C2)c1ccc2c(c1)OCCO2` (stereo unspecified), for which the fold increase in Dox EC50 was 1.06 (inactive) and the EC50 was 5.7 µM.

As for `Cc1cccc2cc(CN(Cc3cccs3)C(=S)NCc3ccco3)c(=O)[nH]c12`, the fold increase in Dox EC50 was 0.41 (inactive) and the EC50 came out at 2.21 µM.

With `CCOc1ccc2nc(SCC#N)c(C#N)cc2c1`, the fold increase in Dox EC50 is 0.3 (inactive) and the EC50 was 1.62 µM.

In the case of `O=C(Cn1c(COc2ccc(Cl)cc2)nc2ccccc21)NCC(F)(F)F`, the fold increase in Dox EC50 was 0.75 (inactive) and the EC50 is 4.04 µM.

In the case of `CCc1ccc(C2CC(c3ccccc3C)n3nc(N)nc3N2)cc1` (stereo unspecified), the fold increase in Dox EC50 was 0.57 (inactive) and the EC50 amounted to 3.07 µM.

For the compound `CCOC(=O)/C(=N\Nc1ccccc1Cl)N1CCN(Cc2ccccc2)CC1`, the fold increase in Dox EC50 was 0.63 (inactive) and the EC50 stood at 3.43 µM.

For the compound `CCOC(=O)C1CCCN(Cc2ccc(OC)cc2OC)C1` (stereo unspecified), the fold increase in Dox EC50 is 0.35 (inactive) and the EC50 was determined as 1.91 µM.

Turning to `CCOc1cc(/C=C2\SC(=Nc3ccccc3)N(c3ccccc3)C2=O)ccc1OCC(=O)O`, the fold increase in Dox EC50 was 0.94 (inactive) and the 50% effective concentration (EC50) worked out at 5.09 µM.

In the case of `Cc1nnc2sc(-c3ccncc3)nn12`, the fold increase in Dox EC50 is 0.8 (inactive) and the EC50 stood at 4.31 µM.

Consider `Cc1ccc(OCCN2CCN(C(=O)CCC(=O)Nc3nnc(C)s3)CC2)cc1`, for which the fold increase in Dox EC50 was 1.53 and the EC50 worked out at 8.28 µM.

Turning to `CC1=C(C(=O)Nc2ccccc2)C(c2ccc(C)o2)N2C(=O)CSC2=N1` (stereo unspecified), the fold increase in Dox EC50 was 0.84 (inactive) and the EC50 came out at 4.55 µM.

Take `O=C(NC1CCCC1)C(c1c[nH]c2ccccc12)N(C(=O)Cn1nnc(-c2ccc(Cl)cc2)n1)c1ccccc1` (stereo unspecified): the fold increase in Dox EC50 was 0.99 (inactive) and the EC50 came out at 5.35 µM.

As for `CCOc1ccc(OCC)c(-c2c(=O)n(OCc3ccc(Cl)cc3)c3ccccc3[n+]2[O-])c1`, the fold increase in Dox EC50 is 0.53 (inactive) and the EC50 stood at 2.86 µM.

For the compound `Cc1n[nH]c(=S)n(/N=C/c2ccccn2)c1=O`, the fold increase in Dox EC50 was 0.91 (inactive) and the half-maximal effective concentration (EC50) was found to be 4.9 µM.

As to `CCCCOC(=O)Nc1ccc(C(C)C)cc1`, the fold increase in Dox EC50 is 0.78 (inactive) and the EC50 turned out to be 4.21 µM.

As for `Cc1ccc2c(C)nc(/N=C(\N)NC(=O)N3c4ccccc4Sc4ccccc43)nc2c1`, the fold increase in Dox EC50 was 1.38 (inactive) and the EC50 was found to be 7.48 µM.

`O=C1NC(=Nc2ccc(Cl)cc2)SC1Cc1cc(Cl)ccc1Cl` (stereo unspecified): the fold increase in Dox EC50 was 1.09 (inactive) and the 50% effective concentration (EC50) came to 5.86 µM.

Consider `CC(C)CNC(=O)c1cccc(NC(=O)Cc2ccc(Br)cc2)c1`, for which the fold increase in Dox EC50 is 0.92 (inactive) and the EC50 came to 4.98 µM.

Regarding `N#Cc1c(-c2cccs2)nc(SCC(=O)c2cccs2)[nH]c1=O`, the fold increase in Dox EC50 was 1.12 (inactive) and the half-maximal effective concentration (EC50) was determined as 6.05 µM.

As for `Cc1ccc(C2=CC(C)(c3ccc(C)cc3)Nc3nc(C(F)(F)F)nn32)cc1` (stereo unspecified), the fold increase in Dox EC50 is 0.94 (inactive) and the EC50 is 5.1 µM.

Turning to `COc1ccc(-n2ncc3c(N4CCCc5ccccc54)ncnc32)cc1`, the fold increase in Dox EC50 was 0.67 (inactive) and the EC50 was determined as 3.62 µM.

In the case of `COc1ccc(NC2=Nc3ccccc3N3C2=Nc2c(c(C)nn2-c2ccc(C)cc2)C3c2cccnc2)cc1` (stereo unspecified), the fold increase in Dox EC50 was 0.6 (inactive) and the EC50 was found to be 3.24 µM.

As for `Cc1ccc(Cl)cc1N1CCN(C(=O)Cc2ccc(-n3c(=O)[nH]c4ccsc4c3=O)cc2)CC1`, the fold increase in Dox EC50 is 0.78 (inactive) and the EC50 was found to be 4.24 µM.

Consider `O=C1c2cccc(OCc3ccc(F)cc3)c2CCN1Cc1ccc(F)cc1`, for which the fold increase in Dox EC50 was 1.08 (inactive) and the EC50 stood at 5.82 µM.

On to `CS(=O)(=O)Nc1nnc(Cc2ccccc2)s1`, for which the fold increase in Dox EC50 was 0.75 (inactive) and the EC50 came out at 4.04 µM.

Take `COc1cc(C(c2sc3ncnn3c2O)N2CCN(c3ccccc3F)CC2)cc(OC)c1OC` (stereo unspecified): the fold increase in Dox EC50 is 0.81 (inactive) and the concentration giving a half-maximal response (EC50) is 4.37 µM.

Take `COc1ccccc1-c1cc(C(=O)NC(C)c2ccccc2)no1` (stereo unspecified): the fold increase in Dox EC50 is 1.04 (inactive) and the EC50 came out at 5.64 µM.

`CC(/C=C1\SC(=O)N(CC(=O)Nc2ccc(O)cc2)C1=O)=C\c1ccccc1`: the fold increase in Dox EC50 was 0.68 (inactive) and the EC50 worked out at 3.7 µM.

For `COC(=O)c1ccc(COc2cc(O)c3c(c2)OC(C)(C)CC3=O)cc1`, the fold increase in Dox EC50 is 1.03 (inactive) and the EC50 was 5.56 µM.

In the case of `COc1ccc(N(C(=O)Cn2cnc3ccccc32)C(C(=O)NC2CCCCC2)c2ccccc2)cc1` (stereo unspecified), the fold increase in Dox EC50 is 0.38 (inactive) and the concentration for a half-maximal effect (EC50) is 2.07 µM.

As to `Cc1cccc(OCc2nc(-c3nonc3N)no2)c1C`, the fold increase in Dox EC50 is 0.78 (inactive) and the EC50 was 4.22 µM.

Take `CCOC(=O)c1[nH]c2cc(OC)c(OC)cc2c1N`: the fold increase in Dox EC50 was 0.96 (inactive) and the EC50 was found to be 5.17 µM.

Consider `O=C(CSc1nccn1-c1cccc(Cl)c1)Nc1ccc2c(c1)OCCO2`, for which the fold increase in Dox EC50 was 1.22 (inactive) and the EC50 turned out to be 6.58 µM.

For `O=C(NCC1(c2ccccc2)CCOCC1)c1ccc(Br)o1`, the fold increase in Dox EC50 was 1.3 (inactive) and the EC50 amounted to 7.01 µM.

On to `Cc1cccc(C2CC(c3ccccc3)Nc3ncnn32)c1` (stereo unspecified), for which the fold increase in Dox EC50 was 0.46 (inactive) and the EC50 was 2.46 µM.

Turning to `COC(=O)N/N=C/c1ccc(-c2ccc(C)c(Cl)c2)o1`, the fold increase in Dox EC50 was 0.63 (inactive) and the EC50 is 3.41 µM.

As to `O=C(COC(=O)C1CC2C=CC1C2)Nc1ccc2c(c1)OC(F)(F)O2` (stereo unspecified), the fold increase in Dox EC50 is 1.21 (inactive) and the EC50 stood at 6.54 µM.

As to `COc1ccc(C2CC(c3ccc(Cl)cc3)n3nc(N)nc3N2)cc1` (stereo unspecified), the fold increase in Dox EC50 is 0.65 (inactive) and the EC50 came to 3.52 µM.
